Peptide text beside a SMILES is read from it.
How the values were obtained:
[1] = tested on: diet-induced obesity (DIO) mouse model; experiment: DIO mouse model QD: liver Oil Red O staining (Example 8-4); type: in vivo; conditions: DIO mice, QD (once daily), 45 nmol/kg/dose
Method: Finally, to confirm the anti-obesity effect in the liver, liver Oil Red O staining analysis was performed. ORO staining is a staining method used to detect triglycerides (fat) in adipose-related diseases, and used to differentiate fat embolism, liposarcoma, hepatic steatosis, and lipid accumulation disorders. In addition, it can also detect lipid complexes, such as phospholipids. For ORO analysis, liver tissue was processed in 30% sucrose in a refrigerator for 3 days to prepare frozen tissue sections, which were used to prepare OCT-embedded frozen blocks. Cryosections were prepared and stained with ORO.

[2] = target: T1, GLP-2 (Homo sapiens, UniProt O95838); experiment: GLP-2 activity, cell-based cAMP assay (same method as Example 2); conditions: Example 5, relative to GLP-2
T1 sequence (O95838 1-553): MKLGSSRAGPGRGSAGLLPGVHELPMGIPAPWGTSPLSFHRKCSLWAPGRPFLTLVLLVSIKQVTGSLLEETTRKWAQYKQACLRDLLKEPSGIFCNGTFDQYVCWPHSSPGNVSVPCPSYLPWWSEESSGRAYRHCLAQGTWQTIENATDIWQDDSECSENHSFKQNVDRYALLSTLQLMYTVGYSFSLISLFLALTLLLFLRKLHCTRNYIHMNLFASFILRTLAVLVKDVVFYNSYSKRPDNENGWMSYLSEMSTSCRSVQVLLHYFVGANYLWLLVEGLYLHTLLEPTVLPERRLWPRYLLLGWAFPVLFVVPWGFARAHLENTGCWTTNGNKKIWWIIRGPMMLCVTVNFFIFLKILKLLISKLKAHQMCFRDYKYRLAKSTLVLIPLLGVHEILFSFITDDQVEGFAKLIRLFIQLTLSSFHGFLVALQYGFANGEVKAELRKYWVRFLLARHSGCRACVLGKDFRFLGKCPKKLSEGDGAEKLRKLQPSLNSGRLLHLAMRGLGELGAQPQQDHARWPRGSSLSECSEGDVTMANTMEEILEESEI

[3] = tested on: diet-induced obesity (DIO) mouse model; experiment: DIO mouse model QD: obesity-related factors in plasma (Example 7-4); type: in vivo; conditions: DIO mice, QD (once daily), 45 nmol/kg/dose
Method: In addition, after the experiment was completed, blood and serum samples were obtained from each mouse model, and biochemical tests were performed for blood glucose, total cholesterol, high-density lipoprotein (HDL), low-density lipoprotein (LDL), and triglycerides.
The anti-obesity effects of SEQ ID NO: 1 prepared in Example 1, and SEQ ID NOs: 6 and 7 prepared in Example 4 were analyzed. […] In addition, as an experimental model, a diet-induced obesity (DIO) mouse model fed a high-fat diet for 3 months was used.
To analyze the anti-obesity effect, mouse plasma was obtained postmortem to measure obesity-related factors in plasma. Here, the analysis method was the same as described in Example 3.

GLP-2 activity Compared to GLP-2 [2]: ~ 0.02%
Compound: CCCCCCCCCCCCCCCC(=O)N[C@@H](CCC(=O)NCCCC[C@H](NC(=O)[C@H](CCCCN)NC(=O)[C@H](CC(=O)O)NC(=O)[C@@H](NC(=O)[C@@H](NC(=O)[C@H](CCCCN)NC(=O)[C@@H](NC(=O)[C@H](CCC(N)=O)NC(=O)[C@@H](NC(=O)[C@H](CC(C)C)NC(=O)[C@H](Cc1c[nH]c2ccccc12)NC(=O)[C@H](CC(N)=O)NC(=O)[C@@H](NC(=O)[C@H](Cc1ccccc1)NC(=O)[C@H](CC(=O)O)NC(=O)[C@H](CCCNC(=N)N)NC(=O)[C@H](C)NC(=O)[C@H](C)NC(=O)[C@H](CC(C)C)NC(=O)[C@H](C)NC(=O)[C@H](CC(=O)O)NC(=O)[C@H](CC(C)C)NC(=O)[C@H](Cc1ccc(O)cc1)NC(=O)[C@@H](NC(=O)[C@H](CO)NC(=O)[C@H](CC(C)C)NC(=O)[C@H](CC(=O)O)NC(=O)[C@H](CO)NC(=O)[C@@H](NC(=O)[C@H](Cc1ccccc1)NC(=O)[C@@H](NC(=O)CNC(=O)[C@H](CCC(=O)O)NC(=O)CNC(=O)[C@@H](N)Cc1c[nH]cn1)[C@@H](C)O)[C@@H](C)O)[C@@H](C)O)[C@@H](C)CC)[C@@H](C)CC)[C@@H](C)O)[C@@H](C)CC)[C@@H](C)O)C(=O)O)C(=O)O [HU020K2FA] (HELM PEPTIDE1{H.G.E.G.T.F.T.S.D.L.S.T.Y.L.D.A.L.A.A.R.D.F.I.N.W.L.I.Q.T.K.I.T.D.K.K}|PEPTIDE2{[CCCCCCCCCCCCCCCC(=O)[*:2]].[gGlu]}$PEPTIDE1,PEPTIDE2,35:R3-2:R2$$$V2.0; N-terminus and C-terminus assumed)
ORO positive area (%) [1]: 1.41±0.66% | HbA1c (%) ([3]; blood): 4.39±0.21% | GLU ([3]; plasma): 209.2 ± 9.3 mg/dL | HDL ([3]; plasma): 100.4 ± 9.3 mg/dL | LDL ([3]; plasma): 8.9 ± 9.3 mg/dL | TCHO ([3]; plasma): 198.6 ± 24.3 mg/dL | TG ([3]; plasma): 75.1 ± 19.4 mg/dL

From patent EP4741420A1, “PHARMACEUTICAL COMPOSITION FOR PREVENTING OR TREATING OBESITY COMPRISING GLP ANALOGUE AS ACTIVE INGREDIENT” (priority 2023, dated 2025)
